Results published in patent US10851089B2, “Matrix metalloproteinase (MMP) inhibitors and methods of use thereof” (Foresee Pharmaceuticals Co., Ltd., priority 2018, dated 2020).

Tests used:
[1] = target: recombinant human MMP-8 (Homo sapiens (Human), UniProt P22894); test: MMP selectivity assay MMP-8; format: biochemical
Experimental: (§1) The inhibitory effect of compounds on the rate of cleaving fluorogenic MMP substrate (Enzo, BML-P128) by recombinant human MMP-12 catalytic domain (Enzo, BML-SE138) was carried out by methods known in the art. Briefly, to each well of a 96-well black opaque plate, all the reagents were sequentially added by pipetting, and the final reaction contained 4 nM of recombinant human MMP-12 catalytic domain, 4 μM of fluorogenic MMP substrate, and various concentrations (0.15 nM to 10,000 nM) of tested compound dilutions in HEPES buffer (pH 7.5) containing 10 mM of CaCl2, 0.01% Brij® 35 (polyoxyethylene (23) lauryl ether), and 0.1 mg/ml of BSA.
(§2) The enzyme and compounds were pre-incubated on a shaker to mix in wells. After an hour of mixing, fluorogenic substrate was added to each well. Reaction without enzyme was used as a blank control in the plate. The plate was then fed into a plate reader to measure fluorescence intensity at Excitation/Emission wavelengths of 340 nm/440 nm every 10 mins for at least 1 hour at 37° C. The IC50 of each compound in MMP-12 inhibition was determined by using a readout obtained at time point 30 minutes.
(§3) The MMP selectivity assay was performed by using other recombinant human MMPs, including MMP-1, MMP-2, MMP-3, MMP-7, MMP-8, MMP-9, MMP-10, MMP-13, and MMP-14. The IC50 of the compounds for the other recombinant human MMPs was determined as described above in Example 1, and are shown in Table 2.

[2] = target: recombinant human MMP-10 (Homo sapiens (Human), UniProt P09238); test: MMP selectivity assay MMP-10; format: biochemical
Chain of recombinant human MMP-10 (P09238 99-476): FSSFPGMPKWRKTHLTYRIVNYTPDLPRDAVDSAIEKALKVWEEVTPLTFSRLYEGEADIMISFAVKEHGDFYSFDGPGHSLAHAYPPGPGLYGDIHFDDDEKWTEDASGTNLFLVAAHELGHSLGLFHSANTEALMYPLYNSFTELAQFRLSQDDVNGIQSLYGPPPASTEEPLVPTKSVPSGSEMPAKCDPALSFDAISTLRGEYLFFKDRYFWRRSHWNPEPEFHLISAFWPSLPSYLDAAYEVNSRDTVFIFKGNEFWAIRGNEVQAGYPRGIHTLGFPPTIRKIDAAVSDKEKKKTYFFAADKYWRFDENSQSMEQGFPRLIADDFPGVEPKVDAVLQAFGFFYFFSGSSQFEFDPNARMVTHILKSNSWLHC
Experimental: as §1, §2, §3

[3] = test system: bleomycin-induced unilateral lung fibrosis; test: Bleomycin-induced SD rat unilateral lung fibrosis model (IPF); format: in vivo; parameters: Left lung bronchial and arteriole damage score, fibrosis core / Left lung bronchial and arteriole damage score, fibrosis border: scale not given here; Fibrosis score 1-3 (ratio of left lung fibrosis score) / Fibrosis score 4-8 (ratio of left lung fibrosis score) / Left lung fibrosis area: unit not given here; conditions: for Left lung bronchial and arteriole damage score, fibrosis border / Left lung bronchial and arteriole damage score, fibrosis core: 14 days; for Left lung bronchial and arteriole damage score, fibrosis border: model 6.56 ± 0.51; for Left lung bronchial and arteriole damage score, fibrosis core: model 8.34 ± 0.24; for Left lung fibrosis score (Ashcraft): model 3.7 ± 0.1; for Fibrosis score 1-3 (ratio of left lung fibrosis score): model 44.0 ± 3.1; for Fibrosis score 4-8 (ratio of left lung fibrosis score): model 56.0 ± 3.1; for Left lung fibrosis area: model 69.1 ± 3.3
Experimental: The purpose of this study was to evaluate the therapeutic effect of FC-4 on bleomycin (BLM) induced unilateral lung fibrosis model in Sprague Dawley (SD) rats. Male SD rats (n=50) were randomly divided into the following groups: Sham group (n=10), Model group (n=10), FC-4 administered at 10 mg/kg/day group (n=10), FC-4 administered at 30 mg/kg/day group (n=10), and FC-4 administered at 100 mg/kg/day group (n=10). All test drugs were delivered orally starting from day 8 of modeling for 14 days. Saline solution was taken for sham and model groups once a day, and FC-4 twice a day for drug treatment groups. Rats were anesthetized and the trachea was exposed. Saline was administrated via direct intra-trachea injection in the sham group, and the other groups' animals received a BLM injection at a dose of 3 mg/kg in volume of 1.0 ml/kg. All animals were processed using a non invasive lung function test with EMMS Whole Body Plethysmography system at pre-modeling, and at days 3, 7, 11, 14, 18 and 21 of modeling. One day after the last drug delivery, the left lung of all animals was perfused with 10% formalin, and processed for pathology analysis.
Animals: Species and quality level: SD rats, SPF grade. Gender and number: male, 93. Purchasing body weight range: 260-280 g. Company Certificate No.: SCXX (Jing) 2012-001, Beijing Vital River Laboratory Animal Technology Co., Ltd. Animal Housing: Rats were housed in the Animal House Facility of the Nanjing BioSciKin Co. Ltd. under international standards for temperature, humidity and light control system. The animal use protocol was reviewed and approved by the Institutional Animal Care and Use Committee (IACUC) of KCI Biotech Inc. All experimental procedures were conducted in conformity with institutional guidelines of KCI Biotech Inc.
Model Establishment: This study was carried out in strict accordance with the SOP institutional guidelines for the care and use of laboratory animals. Rats were anesthetized by intraperitoneal injection of pentobarbital sodium at dose of 50 mg/kg. Then rat neck skin was disinfected and opened in layers. The trachea was exposed carefully. Bleomycin (BLM) was directly injected into the left main bronchus at a dose of 3 mg/kg body weight in volume of 1.0 ml/kg via a cannula. After closing the trachea and skin in layers the animal was moved on an electric heat pad at 37° C. to await waking up from the anesthesia before returning to holding cages with free access to water and diet.
Experiment Grouping: Rats were assigned into 5groups: Sham (Group-1, n=10), Model (Group-2, n=10), FC-4-Low dose (Group-3, 10 mg/kg/day, n=10), FC-4-Middle dose (Group-4, 30 mg/kg/day, n=10), FC-4-High dose (Group-5, 100 mg/kg/day, n=10) (Table 1).
Drug Administration: Test article FC-4 were designed as an oral administration via a gastric perfusion. FC-4 was delivered twice a day starting from day-8 of modeling for 14 days. (Table 3.1).
Endpoint: a) Non invasive lung function test: All animals were given a non-invasive lung function examination with EMMS Whole Body Plethysmography (WBP) system at multiple time points during the study periods, including at pre-IPF modeling, day-3 of IPF, day-7 of IPF before dosing, day-11 of IPF, day-14 of IPF, day-18 of IPF and day-21 of IPF before sacrificing the animals, focusing on the parameters of tidal volume (TV), breath rate, inspiratory volume per minute (MV) and Penh. index. b) Left lung collection for pathology analysis: After the last examination of lung function, all animals were euthanized according to the standard SOP at KCI. After confirming the animal death, each animal received a systemic perfusion with 10% formaldehyde solution, then the left lung was harvested and perfused again with an equal volume of 10% formaldehyde solution (3 ml for each lung). […]

Chain of recombinant human MMP-8 (P22894 101-467): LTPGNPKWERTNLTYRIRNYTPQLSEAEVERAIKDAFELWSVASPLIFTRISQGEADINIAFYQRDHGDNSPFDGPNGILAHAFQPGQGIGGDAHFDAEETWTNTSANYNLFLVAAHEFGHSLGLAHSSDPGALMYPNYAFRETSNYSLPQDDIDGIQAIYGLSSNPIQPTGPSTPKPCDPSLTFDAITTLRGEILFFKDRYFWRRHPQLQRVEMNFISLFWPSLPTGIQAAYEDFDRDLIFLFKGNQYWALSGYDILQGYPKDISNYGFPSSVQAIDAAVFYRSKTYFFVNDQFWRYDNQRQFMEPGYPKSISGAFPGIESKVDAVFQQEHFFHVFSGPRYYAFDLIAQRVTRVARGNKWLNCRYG

Cc1cc(COc2ccc(Sc3ccoc3C3NC(=O)NC3=O)cc2)ccn1 (stereo not shown) [FC-4]
IC50 [1]: 10 to 100 nM
IC50 [2]: 100 to 1000 nM
Left lung bronchial and arteriole damage score, fibrosis border ([3]; 10 mg/kg/d p.o. BID): 4.2 ± 0.516
Left lung bronchial and arteriole damage score, fibrosis core ([3]; 10 mg/kg/d p.o. BID): 6.04 ± 0.19
Left lung fibrosis score (Ashcraft) ([3]; 10 mg/kg/d p.o. BID): 2.5 ± 0.2
Fibrosis score 1-3 (ratio of left lung fibrosis score) ([3]; 10 mg/kg/d p.o. BID): 82.0 ± 5.5
Fibrosis score 4-8 (ratio of left lung fibrosis score) ([3]; 10 mg/kg/d p.o. BID): 18.0 ± 5.5
Left lung fibrosis area ([3]; 10 mg/kg/d p.o. BID): 75.1 ± 3.0
Left lung bronchial and arteriole damage score, fibrosis border ([3]; 30 mg/kg/d p.o. BID): 4.76 ± 0.16
Left lung bronchial and arteriole damage score, fibrosis core ([3]; 30 mg/kg/d p.o. BID): 6.18 ± 0.26
Left lung fibrosis score (Ashcraft) ([3]; 30 mg/kg/d p.o. BID): 2.6 ± 0.1
Fibrosis score 1-3 (ratio of left lung fibrosis score) ([3]; 30 mg/kg/d p.o. BID): 81.0 ± 4.8
Fibrosis score 4-8 (ratio of left lung fibrosis score) ([3]; 30 mg/kg/d p.o. BID): 19.0 ± 4.8
Left lung fibrosis area ([3]; 30 mg/kg/d p.o. BID): 66.4 ± 2.9
Left lung bronchial and arteriole damage score, fibrosis border ([3]; 100 mg/kg/d p.o. BID): 4.18 ± 0.53
Left lung bronchial and arteriole damage score, fibrosis core ([3]; 100 mg/kg/d p.o. BID): 6.28 ± 0.21
Left lung fibrosis score (Ashcraft) ([3]; 100 mg/kg/d p.o. BID): 2.4 ± 0.2
Fibrosis score 1-3 (ratio of left lung fibrosis score) ([3]; 100 mg/kg/d p.o. BID): 84.0 ± 4.3
Fibrosis score 4-8 (ratio of left lung fibrosis score) ([3]; 100 mg/kg/d p.o. BID): 16.0 ± 4.3
Left lung fibrosis area ([3]; 100 mg/kg/d p.o. BID): 70.5 ± 3.0
Body weight recovery ([3]; CPD treatment groups vs model group): no significant difference in body recovery
Share of Ashcraft score ≤ score 3 ([3]; all drug treatment groups, model over 60% ≥ score 4): ~80%
MMP-12 expression in fibrosis core (IHC) ([3]; clear dose dependent reduction (p>0.05 as printed)): significant reduction
Collagen-I deposition in fibrosis core (IHC) ([3]; each dose, p<0.05): significant dosing dependent reduction
Collagen-IV deposition in fibrosis core (IHC) ([3]; p<0.05): significant dose dependent reduction
Elastin expression in fibrosis core (IHC) ([3]; p<0.05): significant reduction
TGF-β1 expression in fibrosis core (IHC) ([3]; p<0.05): significant reduction
Non invasive lung function (TV, MV, breath rate, Penh) ([3]; vs vehicle treated animals, all doses): did not show any significant changes
